Among the data in patent US20100010024A1, “USE OF1,4-DIARYL-DIHYDROPYRIMIDINE-2-ON DERIVATIVES FOR TREATING PULMONARY ARTERIAL HYPERTENSION” (Bayer Healthcare AG, priority 2006, published 2010) are IC50 values, retold here.

This test addresses T1, human neutrophil elastase (HNE) (Homo sapiens, UniProt P08246).
T1 construct: purchased Serva, Heidelberg
T1 sequence (P08246 30-267): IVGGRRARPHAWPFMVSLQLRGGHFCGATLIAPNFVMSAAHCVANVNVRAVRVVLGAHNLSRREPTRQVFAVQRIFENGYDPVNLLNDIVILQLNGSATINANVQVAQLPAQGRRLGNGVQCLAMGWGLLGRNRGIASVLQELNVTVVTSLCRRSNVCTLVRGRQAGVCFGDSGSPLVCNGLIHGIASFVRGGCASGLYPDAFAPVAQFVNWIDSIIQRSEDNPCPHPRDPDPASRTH
Kind of test: In vitro HNE inhibition assay. It counts as biochemical. Conditions: 80 pM HNE, 20 μM MeOSuc-Ala-Ala-Pro-Val-AMC, 37° C., 2 hours, fluorescence. As to the method:
B-1. In vitro HNE Inhibition Assay
The potency of the compounds of the invention is ascertained in an in vitro inhibition assay. The HNE-mediated amidolytic cleavage of a suitable peptide substrate leads in this connection to an increase in the fluorescent light. The signal intensity of the fluorescent light is directly proportional to the enzyme activity.
Enzyme (80 pM HNE; from Serva, Heidelberg) and substrate (20 μM MeOSuc-Ala-Ala-Pro-Val-AMC; from Bachem, Weil am Rhein) are incubated in an assay volume of in total 50 μl of assay buffer (0.1 M HEPES pH 7.4, 0.5 M NaCl, 0.1% w/v BSA, 1% v/v DMSO) in a 384-well microtiter plate in the presence and absence of the test substance at 37° C. for 2 hours. […] The IC50 values are determined by plotting the intensity of the fluorescent light against the active substance concentration.

The molecule `CCOC(=O)C1=C(C)N(c2cccc(C(F)(F)F)c2)C(=O)N(CC(=O)N(C)C)[C@@H]1c1ccc(C#N)cc1` [Example 30, Ethyl(4R)-4-(4-cyanophenyl)-3-[2-(dimethylamino)-2-oxoethyl]-6-methyl-2-oxo-1-[3-(trifluoromethyl)phenyl]-1,2,3,4-tetrahydropyrimidine-5-carboxylate] gave an IC50 of 0.4 nM.

Regarding `CC(=O)C1=C(C)N(c2cccc(C(F)(F)F)c2)C(=O)N(Cc2cccc(C(=O)O)c2)[C@@H]1c1ccc(C#N)cc1` [Example 17, 3-{[(6R)-5-Acetyl-6-(4-cyanophenyl)-4-methyl-2-oxo-3-[3-(trifluoromethyl)phenyl]-3,6-dihydropyrimidin-1(2H)-yl]methyl}benzoic acid], it took 3.9 nM to reach half-maximal inhibition (IC50).

Take `CC(=O)C1=C(C)N(c2ccc(F)c(C(F)(F)F)c2)C(=O)N[C@@H]1c1ccc(C#N)cc1` [Example 7, 4-{(4R)-5-Acetyl-1-[4-fluoro-3-(trifluoromethyl)phenyl]-6-methyl-2-oxo-1,2,3,4-tetrahydropyrimidin-4-yl}benzonitrile]: the IC50 came to 5.2 nM.

In turn, `CC(=O)C1=C(C)N(c2cccc(C(F)(F)F)c2)C(=O)N(CC(N)=O)[C@@H]1c1ccc(C#N)cc1` [Example 21, 2-[(6R)-5-Acetyl-6-(4-cyanophenyl)-4-methyl-2-oxo-3-[3-(trifluoromethyl)phenyl]-3,6-dihydropyrimidine-1(2H)-yl]acetamide] registered an IC50 of 5.5 nM.

On to `CC1=C(C(=O)C(C)C)[C@@H](c2ccc(C#N)cc2)N(CC(=O)O)C(=O)N1c1cccc(C(F)(F)F)c1` [Example 16, [(6R)-6-(4-Cyanophenyl)-5-isobutyryl-4-methyl-2-oxo-3-[3-(trifluoromethyl)phenyl]-3,6-dihydropyrimidin-1(2H)-yl]acetic acid], for which half-maximal inhibition (IC50) was put at 2.9 nM.

`CC(=O)C1=C(C)N(c2cccc(C(F)(F)F)c2)C(=O)N(Cc2ccc(C(=O)O)cc2)[C@@H]1c1ccc(C#N)cc1` [Example 18, 4-{[(6R)-5-Acetyl-6-(4-cyanophenyl)-4-methyl-2-oxo-3-[3-(trifluoromethyl)phenyl]-3,6-dihydropyrimidin-1(2H)-yl]methyl}benzoic acid] registered an IC50 of 2.9 nM.

`CC1=C(C(=O)C2CCC2)[C@@H](c2ccc(C#N)cc2)N(CC(=O)O)C(=O)N1c1cccc(C(F)(F)F)c1` [Example 8, [(6R)-6-(4-Cyanophenyl)-5-(cyclobutylcarbonyl)-4-methyl-2-oxo-3-[3-(trifluoromethyl)phenyl]-3,6-dihydropyrimidin-1(2H)-yl]acetic acid] gave an IC50 of 4.3 nM.

The molecule `CC1=C(C(=O)C2CCC2)[C@@H](c2ccc(C#N)cc2)NC(=O)N1c1cccc(C(F)(F)F)c1` [Example 3, 4-{(4R)-5-(Cyclobutylcarbonyl)-6-methyl-2-oxo-1-[3-(trifluoromethyl)phenyl]-1,2,3,4-tetrahydropyrimidin-4-yl}benzonitrile] returned an IC50 of 14.8 nM. Against the preceding molecule, the IC50 is about 3.4-fold higher.

`CC1=C(C(=O)OCCO)[C@@H](c2ccc(C#N)cc2)N(CC(N)=O)C(=O)N1c1cccc(C(F)(F)F)c1` [Example 29] yielded an IC50 of 1.4 nM.
